From patent publication US20130053337A1, “GUANIDINYLATED AMINOGLYCOSIDE-LIPID CONJUGATES” (UNIVERSITY OF MANITOBA, priority 2010, published 2013) come the findings set out here.

Data set [1] has as its system S. epidermidis ATCC 14990. The data set can be described thus: MIC, broth macrodilution (CLSI). The data set is classed as cell-based, Staphylococcus epidermidis. As to conditions: S. epidermidis ATCC14990. How it is done:
(§1) All experiments were performed in duplicate.
(§2) Bacterial isolates studied included both reference strains obtained from the American Type Culture Collection (ATCC) as well as clinical strains obtained from the CAN-ICU study which was a national surveillance study assessing the prevalence of antimicrobial resistant pathogens in Canadian intensive care units (Zhanel et al., 2008). Isolates were kept frozen in skim milk at −80° C. until minimum inhibitory concentration (MIC) testing was carried out. Following two subcultures from frozen stock, the in vitro activities of peptides were determined by macrobroth dilution in accordance with the Clinical and Laboratory Standards Institute (CLSI) 2006 guidelines (Zhanel et al., 2008). Stock solutions of peptides were prepared and dilutions made as described by CLSI. Test tubes contained doubling antimicrobial dilutions of cation adjusted Mueller-Hinton broth and inoculated to achieve a final concentration of approximately 5×10^5 cfu/ml then incubated in ambient air for 24 hours prior to reading. Colony counts were performed periodically to confirm inocula. Quality control was regularly performed using ATCC QC organisms.

A further data set relates to MRSA ATCC 33592. Briefly: MIC, broth macrodilution (CLSI). As to conditions: MRSA ATCC33592. The data set is classed as cell-based, methicillin-resistant Staphylococcus aureus. How it is done: as §1, §2
The subject of data set [2] is sheep red blood cell (erythrocytes). Briefly: Hemolytic assay (in vitro toxicity). As to conditions: for hemolytic activity at 100 mg/L: sheep erythrocytes, percent hemolysis. How it is done:
Antibacterial activity against Gram-positive and Gram-negative microorganisms was tested via broth macrodilution tests using CLSI methodology (Zhanel et al., 2008). Stock solutions of cationic lipids in water were brought to a concentration of 512 mg/L. Organisms were subcultured and isolated on blood agar, suspended in 3 mL of Mueller-Hinton broth at the turbidity of a […], and diluted to approximately 10^5 cfu/mL before introduction into tubes containing serially diluted lipopeptide antibiotic in Mueller-Hinton broth. Activity testing against S. pneumoniae used broth supplemented with laked horse blood to give 5% horse blood in experimental tubes. Turbidity of lipopeptide solution in broth required creation of control tubes lacking organisms serving as turbidity controls. All tubes were incubated overnight for 16-20 h at 37° C. […] All experiments were performed in duplicate. In-vitro toxicity was determined using a sheep red blood cell hemolytic assay as previously described (Dathe et al., 1996).
In vitro toxicity was determined using a sheep red blood cell (erythrocytes) hemolytic assay (Dathe et al., 1996). […] Erythrocytes were washed and resuspended in Tris buffered saline. The cell suspension was combined with varying concentrations (low to very high) of test and control antimicrobials (e.g., aminoglycosides and APTCs). The samples were centrifuged and the absorbance of the supernatants measured at 540 nm. Tris buffered saline and Triton X were used as negative and positive controls, respectively. The toxicity was assessed by percent hemolysis.

In another data set the test system is MRSE CAN-ICU 61589. Briefly: MIC, broth macrodilution (CLSI). It is filed as cell-based, methicillin-resistant Staphylococcus epidermidis. How it is done: as §1, §2
For a further data set, the system named is P. aeruginosa ATCC 27853. The data set can be described thus: MIC, broth macrodilution (CLSI). The data set is classed as cell-based. As to conditions: P. aeruginosa ATCC27853. How it is done: as §1, §2
The test system of the next data set is E. coli ATCC 25922. Briefly: MIC, broth macrodilution (CLSI). It is filed as cell-based. As to conditions: E. coli ATCC25922. How it is done:
as §1, §2

Data set [3] has as its system P. aeruginosa (gentamicin-resistant) CAN-ICU 62308. The data set can be described thus: MIC, broth macrodilution (CLSI). It is filed as cell-based. How it is done:
as §1, §2

The test system of data set [4] is E. coli (gentamicin-resistant) CAN-ICU 61714. Briefly: MIC, broth macrodilution (CLSI). As to conditions: E. coli CAN-ICU 61714. It is filed as cell-based. How it is done: as §1, §2
Data set [5] deals with E. coli (amikacin MIC 32 mg/L) CAN-ICU 63074. Briefly: MIC, broth macrodilution (CLSI). The data set is classed as cell-based. As to conditions: E. coli CAN-ICU 63074. How it is done: as §1, §2
A further data set relates to S. pneumoniae ATCC 49619. The data set can be described thus: MIC, broth macrodilution (CLSI), broth with 5% laked horse blood. It is filed as cell-based, Streptococcus pneumoniae. As to conditions: S. pneumoniae ATCC49619. How it is done:
as §1, §2

In the next data set the test system is E. faecium ATCC 27270. The data set can be described thus: MIC, broth macrodilution (CLSI). The data set is classed as cell-based, Enterococcus faecium. As to conditions: E. facium ATCC27270. How it is done:
as §1, §2

The test system of another data set is S. aureus ATCC 29213. Briefly: MIC, broth macrodilution (CLSI). It is filed as cell-based, Staphylococcus aureus. As to conditions: S. aureus ATCC29213. How it is done: as §1, §2
The test system of the next data set is E. faecalis ATCC 29212. Briefly: MIC, broth macrodilution (CLSI). As to conditions: E. faecalis ATCC29212. It is filed as cell-based, Enterococcus faecalis. How it is done:
as §1, §2

One may read the MIC as the lowest concentration that inhibits growth of the organism. A lower MIC goes with a more susceptible organism. As to `CCCCCCCCCCCC(=O)NCC1OC(OC2C(O)C(NC(=N)N)CC(NC(=N)N)C2OC2OC(CNC(=N)N)C(O)C(O)C2NC(=N)N)C(O)C1OC1OC(CNC(=N)N)C(O)C(O)C1NC(=N)N.O=C(O)C(F)(F)F.O=C(O)C(F)(F)F.O=C(O)C(F)(F)F.O=C(O)C(F)(F)F.O=C(O)C(F)(F)F.O=C(O)C(F)(F)F` (centres unmarked) [Compound 9, 1,3,2′,6′,2′″,6′″-Hexaammonium-guanidinyl-5″-deoxy-5″-N-(dodecanoyl)-neomycin hexakis(trifluoroacetate)], the MIC in [1] was 2 µg/mL; against MRSA ATCC 33592, 8 µg/mL; in the data set on MRSE CAN-ICU 61589 it was 2 µg/mL; against P. aeruginosa ATCC 27853 it was 32 µg/mL; against E. coli ATCC 25922 it was 16 µg/mL; in [3] (P. aeruginosa CAN-ICU 62308) it was 32 µg/mL. Further, the MIC was 32 µg/mL in data set [4]; 16 µg/mL in [5]; 64 µg/mL in the data set on S. pneumoniae ATCC 49619; 16 µg/mL with E. faecium ATCC 27270; 4 µg/mL in the data set with S. aureus ATCC 29213; 32 µg/mL with E. faecalis ATCC 29212. For the same compound, the “hemolytic activity at 100 mg/L” value in data set [2] amounted to 2%.

On to `CCCCCCCCCCCCCCCC(=O)NCC1OC(OC2C(O)C(NC(=N)N)CC(NC(=N)N)C2OC2OC(CNC(=N)N)C(O)C(O)C2NC(=N)N)C(O)C1OC1OC(CNC(=N)N)C(O)C(O)C1NC(=N)N.O=C(O)C(F)(F)F.O=C(O)C(F)(F)F.O=C(O)C(F)(F)F.O=C(O)C(F)(F)F.O=C(O)C(F)(F)F.O=C(O)C(F)(F)F` (centres unmarked) [Compound 10, 1,3,2′,6′,2′″,6′″-Hexaammonium-guanidinyl-5″-deoxy-5″-N-(hexadecanoyl)-neomycin hexakis(trifluoroacetate)], for which the MIC in data set [1] was found to be 1 µg/mL; with MRSA ATCC 33592, 4 µg/mL; in the data set on MRSE CAN-ICU 61589, 4 µg/mL; in the data set on P. aeruginosa ATCC 27853, 32 µg/mL; with E. coli ATCC 25922, 32 µg/mL; in [3] (P. aeruginosa CAN-ICU 62308), 8 µg/mL. Besides, the MIC in [3] (gentamicin-resistant (as well as neomycin B and kanamycin A-resistant) P. aeruginosa strain) is 8 µg/mL; in data set [4], 64 µg/mL; in data set [5], 32 µg/mL; in the data set on S. pneumoniae ATCC 49619, 32 µg/mL; with E. faecium ATCC 27270, 0.5 µg/mL; against S. aureus ATCC 29213, 4 µg/mL. This compound also yielded an MIC against E. faecalis ATCC 29212 of 4 µg/mL. Further, the “hemolytic activity at 100 mg/L” value in data set [2] is recorded as 13%. The “hemolytic activity compared to polyamine analogs 3 and 15” value in data set [2] (in words) is listed as “reduced hemolytic activity”.

`CCCCCCCCCCCCCCCCCCCC(=O)NCC1OC(OC2C(O)C(NC(=N)N)CC(NC(=N)N)C2OC2OC(CNC(=N)N)C(O)C(O)C2NC(=N)N)C(O)C1OC1OC(CNC(=N)N)C(O)C(O)C1NC(=N)N.O=C(O)C(F)(F)F.O=C(O)C(F)(F)F.O=C(O)C(F)(F)F.O=C(O)C(F)(F)F.O=C(O)C(F)(F)F.O=C(O)C(F)(F)F` (centres unmarked) [Compound 11]: the MIC in data set [1] amounted to 4 µg/mL; against MRSA ATCC 33592, 32 µg/mL; in the data set on MRSE CAN-ICU 61589, 4 µg/mL; with P. aeruginosa ATCC 27853, 128 µg/mL; against E. coli ATCC 25922, 64 µg/mL; in [3] (P. aeruginosa CAN-ICU 62308), 64 µg/mL. For the same compound, the MIC in data set [4] was determined as 128 µg/mL; in [5] it was 128 µg/mL; with S. pneumoniae ATCC 49619, 64 µg/mL; in the data set on E. faecium ATCC 27270, 2 µg/mL; in the data set on S. aureus ATCC 29213, 32 µg/mL; against E. faecalis ATCC 29212 it was 32 µg/mL. The “hemolytic activity at 100 mg/L” value in data set [2] is listed as 82%.
